# “And” between values parts separate entries of the source, which are not always exact repeats. Equal values may be shown once.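 48-hour exposure; five concentrations; linearly interpolated endpoints. GI50 marks 50% less growth. TGI: concentration producing complete growth inhibition.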
# Assays:
# Test in all cases: growth of human tumour cells (NCI), 48 h
# A498 renal = tested on: A498 renal
# CAKI-1 renal = tested on: CAKI-1 renal
# DLD-1 colon = tested on: DLD-1 colon
# DMS 114 small cell lung = tested on: DMS 114 small cell lung
# DMS 273 small cell lung = tested on: DMS 273 small cell lung
# DU-145 prostate = tested on: DU-145 prostate
# HCT-15 colon = tested on: HCT-15 colon
# HOP-18 NSCLC = tested on: HOP-18 NSCLC
# HS 578T breast = tested on: HS 578T breast
# HT29 colon = tested on: HT29 colon
# K-562 leukemia = tested on: K-562 leukemia
# KM12 colon = tested on: KM12 colon
# KM20L2 colon = tested on: KM20L2 colon
# LXFL 529 NSCLC = tested on: LXFL 529 NSCLC
# M19-MEL melanoma = tested on: M19-MEL melanoma
# MCF7 breast = tested on: MCF7 breast
# MDA-MB-231 breast = tested on: MDA-MB-231 breast
# MDA-MB-435 = tested on: MDA-MB-435
# MDA-N = tested on: MDA-N
# NCI-H522 lung = tested on: NCI-H522 lung
# NCI/ADR-RES ovarian = tested on: NCI/ADR-RES ovarian
# OVCAR-5 ovarian = tested on: OVCAR-5 ovarian
# PC-3 prostate = tested on: PC-3 prostate
# RPMI-8226 leukemia = tested on: RPMI-8226 leukemia
# RXF 393 renal = tested on: RXF 393 renal
# SK-MEL-2 melanoma = tested on: SK-MEL-2 melanoma
# SNB-78 CNS = tested on: SNB-78 CNS
# T-47D breast = tested on: T-47D breast
# 786-0 renal = tested on: 786-0 renal
# A549 NSCLC = tested on: A549 NSCLC
# ACHN renal = tested on: ACHN renal
# CCRF-CEM leukemia = tested on: CCRF-CEM leukemia
# COLO 205 colon = tested on: COLO 205 colon
# EKVX NSCLC = tested on: EKVX NSCLC
# HCC-2998 colon = tested on: HCC-2998 colon
# HCT-116 colon = tested on: HCT-116 colon
# HL-60(TB) leukemia = tested on: HL-60(TB) leukemia
# IGROV1 ovarian = tested on: IGROV1 ovarian
# M14 melanoma = tested on: M14 melanoma
# MALME-3M melanoma = tested on: MALME-3M melanoma
# MOLT-4 leukemia = tested on: MOLT-4 leukemia
# NCI-H226 lung = tested on: NCI-H226 lung
# NCI-H23 lung = tested on: NCI-H23 lung
# NCI-H460 lung = tested on: NCI-H460 lung
# OVCAR-3 ovarian = tested on: OVCAR-3 ovarian
# OVCAR-4 ovarian = tested on: OVCAR-4 ovarian
# OVCAR-8 ovarian = tested on: OVCAR-8 ovarian
# SF-268 CNS = tested on: SF-268 CNS
# SF-295 CNS = tested on: SF-295 CNS
# SF-539 CNS = tested on: SF-539 CNS
# SK-MEL-28 melanoma = tested on: SK-MEL-28 melanoma
# SK-MEL-5 melanoma = tested on: SK-MEL-5 melanoma
# SK-OV-3 ovarian = tested on: SK-OV-3 ovarian
# SN12C renal = tested on: SN12C renal
# SNB-75 CNS = tested on: SNB-75 CNS
# TK-10 renal = tested on: TK-10 renal
# U251 CNS = tested on: U251 CNS
# UACC-257 melanoma = tested on: UACC-257 melanoma
# UO-31 renal = tested on: UO-31 renal
# XF 498 CNS = tested on: XF 498 CNS
structure (smiles),measurement,setting,value
COc1ccc2c(c[n+](C)c3c4cc5c(cc4ccc23)OCO5)c1OC,GI50,A498 renal,9.16 µM and 73.7 µM
same,TGI,A498 renal,21.9 µM and > 100 µM
same,TGI,CAKI-1 renal,3.63 µM
same,TGI,DLD-1 colon,3.08 µM
same,TGI,DMS 114 small cell lung,4.71 µM
same,TGI,DMS 273 small cell lung,3.72 µM
same,TGI,DU-145 prostate,> 100 µM
same,TGI,HCT-15 colon,17.5 µM and > 100 µM
same,TGI,HOP-18 NSCLC,4.04 µM
same,TGI,HS 578T breast,> 100 µM
same,GI50,HT29 colon,1.78 µM and 5.12 µM
same,GI50,K-562 leukemia,3.8 µM and 34.1 µM
same,TGI,K-562 leukemia,> 100 µM
same,GI50,KM12 colon,2.1 µM and 9 µM
same,TGI,KM20L2 colon,3.15 µM
same,TGI,LXFL 529 NSCLC,3.35 µM
same,TGI,M19-MEL melanoma,3.07 µM
same,TGI,MCF7 breast,79.6 µM
same,TGI,MDA-MB-231 breast,> 100 µM
same,TGI,MDA-MB-435,43.8 µM
same,TGI,MDA-N,44.5 µM
same,TGI,NCI-H522 lung,3.64 µM
same,TGI,NCI/ADR-RES ovarian,> 100 µM
same,GI50,OVCAR-5 ovarian,2.49 µM and 22.8 µM
same,TGI,PC-3 prostate,> 100 µM
same,TGI,RPMI-8226 leukemia,> 100 µM
same,TGI,RXF 393 renal,> 100 µM
same,TGI,SK-MEL-2 melanoma,3.54 µM
same,TGI,SNB-78 CNS,4.26 µM
same,TGI,T-47D breast,> 100 µM
CCCN(CCC)c1c([N+](=O)[O-])cc(C(=O)N(CCO)CCO)cc1[N+](=O)[O-],TGI,786-0 renal,> 100 µM
same,TGI,A549 NSCLC,> 100 µM
same,TGI,ACHN renal,> 100 µM
same,TGI,CAKI-1 renal,> 100 µM
same,TGI,CCRF-CEM leukemia,> 100 µM
same,TGI,COLO 205 colon,> 100 µM
same,TGI,DLD-1 colon,> 100 µM
same,TGI,DMS 273 small cell lung,> 100 µM
same,TGI,EKVX NSCLC,> 100 µM
same,TGI,HCC-2998 colon,> 100 µM
same,TGI,HCT-116 colon,> 100 µM
same,TGI,HCT-15 colon,> 100 µM
same,TGI,HL-60(TB) leukemia,> 100 µM
same,TGI,HOP-18 NSCLC,> 100 µM
same,TGI,HT29 colon,> 100 µM
same,TGI,IGROV1 ovarian,> 100 µM
same,TGI,K-562 leukemia,> 100 µM
same,TGI,KM12 colon,> 100 µM
same,TGI,LXFL 529 NSCLC,> 100 µM
same,TGI,M14 melanoma,> 100 µM
same,TGI,M19-MEL melanoma,> 100 µM
same,TGI,MALME-3M melanoma,> 100 µM
same,TGI,MOLT-4 leukemia,> 100 µM
same,TGI,NCI-H226 lung,> 100 µM
same,TGI,NCI-H23 lung,> 100 µM
same,TGI,NCI-H460 lung,> 100 µM
same,TGI,NCI-H522 lung,> 100 µM
same,TGI,OVCAR-3 ovarian,> 100 µM
same,TGI,OVCAR-4 ovarian,> 100 µM
same,TGI,OVCAR-5 ovarian,> 100 µM
same,TGI,OVCAR-8 ovarian,> 100 µM
same,TGI,RPMI-8226 leukemia,> 100 µM
same,TGI,SF-268 CNS,> 100 µM
same,TGI,SF-295 CNS,> 100 µM
same,TGI,SF-539 CNS,> 100 µM
same,TGI,SK-MEL-2 melanoma,> 100 µM
same,TGI,SK-MEL-28 melanoma,> 100 µM
same,TGI,SK-MEL-5 melanoma,> 100 µM
same,TGI,SK-OV-3 ovarian,> 100 µM
same,TGI,SN12C renal,> 100 µM
same,TGI,SNB-75 CNS,> 100 µM
same,TGI,SNB-78 CNS,> 100 µM
same,TGI,TK-10 renal,> 100 µM
same,TGI,U251 CNS,> 100 µM
same,TGI,UACC-257 melanoma,> 100 µM
same,TGI,UO-31 renal,> 100 µM
same,TGI,XF 498 CNS,> 100 µM

# From PubChem BioAssay (NCI)
